Earlier results in patent publication US20140127291A1, “EXTENDED RELEASE ACETAMINOPHEN LIQUID PHARMACEUTICAL COMPOSITIONS” (MAYNE PHARMA INTERNATIONAL PTY LTD, priority 2011, published 2014).

Assays:
[1] = in vivo

Structure (SMILES): CC(=O)Nc1ccc(O)cc1 [acetaminophen]
- saturation concentration in water: about 14 mg/ml
- half life [1]: 1 to 4 h
